# Tested on: respiratory epithelial cells
substance,measurement,setting,value
"IL-13: human IL-13 (Peprotech, Inc.) added to the medium at 50 ng/mL to stimulate respiratory epithelial cells","CH25H (32363_at) expression, fold change upon IL-13 stimulation","lot 1, Day 3, IMM method",8.9 fold
same,"CTSC (133_at) expression, fold change upon IL-13 stimulation","lot 1, Day 3, IMM method",4.7 fold
same,CXCL16 (44095_at) expression fold change,"lot 1, Day 3, IMM method",2.5 fold
same,"DD96 (31610_at) expression, fold change upon IL-13 stimulation","lot 1, Day 3, IMM method",11.4 fold
same,"DDIT3 (39420_at) expression, fold change upon IL-13 stimulation","lot 1, Day 3, IMM method",2.3 fold
same,"DKFZP564O0823 (41402_at) expression, fold change upon IL-13 stimulation","lot 1, Day 3, IMM method",6.7 fold
same,DKFZP566J091 (57197_at) expression fold change,"lot 1, Day 3, IMM method",8.2 fold
same,DPYD (38220_at) expression fold change upon IL-13 stimulation,"lot 1, Day 3, IMM method",7.5 fold
same,EMILIN-2 (51628_at) expression fold change,"lot 1, Day 3, IMM method",2.8 fold
same,"FABP4 (38430_at) expression, fold change upon IL-13 stimulation","lot 1, Day 3, IMM method",2.6 fold
same,FETUB (32620_at) expression fold change,"lot 1, Day 3, IMM method",4.1 fold
same,FLJ10261 (43366_at) expression fold change,"lot 1, Day 3, IMM method",8.2 fold
same,FLJ10261 (43963_at) expression fold change,"lot 1, Day 3, IMM method",6.6 fold
same,FLJ22693 (53777_at) expression fold change,"lot 1, Day 3, IMM method",2.1 fold
same,FUT10 (908_at) expression fold change upon IL-13 stimulation,"lot 1, Day 3, IMM method",4 fold
same,"G1P3 (1358_s_at) expression, fold change upon IL-13 stimulation","lot 1, Day 3, IMM method",7.1 fold
same,GBP5 (52615_at) expression fold change,"lot 1, Day 3, IMM method",2.5 fold
same,HDAC9 (37483_at) expression fold change upon IL-13 stimulation,"lot 1, Day 3, IMM method",3.1 fold
same,"HLA-F (37420_i_at) expression, fold change upon IL-13 stimulation","lot 1, Day 3, IMM method",3 fold
same,HLA-F (49203_f_at) expression fold change,"lot 1, Day 3, IMM method",3.1 fold
same,HS3ST1 (41556_s_at) expression fold change upon IL-13 stimulation,"lot 1, Day 3, IMM method",2.2 fold
same,"IFI27 (425_at) expression, fold change upon IL-13 stimulation","lot 1, Day 3, IMM method",4.5 fold
same,IFI27 (48864_at) expression fold change,"lot 1, Day 3, IMM method",4 fold
same,"IFI35 (464_s_at) expression, fold change upon IL-13 stimulation","lot 1, Day 3, IMM method",9.6 fold
same,"IFI44 (37641_at) expression, fold change upon IL-13 stimulation","lot 1, Day 3, IMM method",8 fold
same,"IFIT1 (915_at) expression, fold change upon IL-13 stimulation","lot 1, Day 3, IMM method",9.9 fold
same,"IFIT1 (32814_at) expression, fold change upon IL-13 stimulation","lot 1, Day 3, IMM method",7.6 fold
same,"IFIT4 (38584_at) expression, fold change upon IL-13 stimulation","lot 1, Day 3, IMM method",10.4 fold
same,"IFITM1 (675_at) expression, fold change upon IL-13 stimulation","lot 1, Day 3, IMM method",19.9 fold
same,IL13RA2 (1016_s_at) expression fold change upon IL-13 stimulation,"lot 1, Day 3, IMM method",5.1 fold
same,IL19 (47855_at) expression fold change,"lot 1, Day 3, IMM method",9.1 fold
same,"ILIRL1 (40322_at) expression, fold change upon IL-13 stimulation","lot 1, Day 3, IMM method",2.6 fold
same,IRF7 (36412_s_at) expression fold change,"lot 1, Day 3, IMM method",2.5 fold
same,"ISG15 (1107_s_at) expression, fold change upon IL-13 stimulation","lot 1, Day 3, IMM method",8.2 fold
same,"ISG15 (38432_at) expression, fold change upon IL-13 stimulation","lot 1, Day 3, IMM method",27.9 fold
same,"ISG20 (33304_at) expression, fold change upon IL-13 stimulation","lot 1, Day 3, IMM method",2.4 fold
same,"KIAA0537 (33787_at) expression, fold change upon IL-13 stimulation","lot 1, Day 3, IMM method",5.8 fold
same,KIAA1268 (57050_at) expression fold change,"lot 1, Day 3, IMM method",2.8 fold
same,KRT16 (601_s_at) expression fold change,"lot 1, Day 3, IMM method",4.6 fold
same,"LAMP3 (37168_at) expression, fold change upon IL-13 stimulation","lot 1, Day 3, IMM method",3.6 fold
same,LOC57118 (51085_at) expression fold change,"lot 1, Day 3, IMM method",3 fold
same,"LOC64116 (40456_at) expression, fold change upon IL-13 stimulation","lot 1, Day 3, IMM method",2.9 fold
same,MDA5 (51920_at) expression fold change,"lot 1, Day 3, IMM method",5.2 fold
same,"MMP7 (668_s_at) expression, fold change upon IL-13 stimulation","lot 1, Day 3, IMM method",2.2 fold
same,MX2 (879_at) expression fold change,"lot 1, Day 3, IMM method",8 fold
same,MXI (37014_at) expression fold change,"lot 1, Day 3, IMM method",10.6 fold
same,NK4 (39119_s_at) expression fold change upon IL-13 stimulation,"lot 1, Day 3, IMM method",2 fold
same,NOS2A (1948_f_at) expression fold change upon IL-13 stimulation,"lot 1, Day 3, IMM method",4.3 fold
same,"OAF (39695_at) expression, fold change upon IL-13 stimulation","lot 1, Day 3, IMM method",3.8 fold
same,OAS1 (38388_at) expression fold change upon IL-13 stimulation,"lot 1, Day 3, IMM method",5.5 fold
same,OAS1 (38389_at) expression fold change upon IL-13 stimulation,"lot 1, Day 3, IMM method",5.3 fold
same,OAS2 (39263_at) expression fold change upon IL-13 stimulation,"lot 1, Day 3, IMM method",2.9 fold
same,OSF-2 (1451_s_at) expression fold change upon IL-13 stimulation,"lot 1, Day 3, IMM method",8.8 fold
same,"PAK2 (1560_g_at) expression, fold change upon IL-13 stimulation","lot 1, Day 3, IMM method",−2.1 fold
same,PLS1 (39951_at) expression fold change,"lot 1, Day 3, IMM method",2.9 fold
same,PLSCR1 (32775_r_at) expression fold change upon IL-13 stimulation,"lot 1, Day 3, IMM method",2.6 fold
same,PMCH (32005_at) expression fold change,"lot 1, Day 3, IMM method",3.3 fold
same,PSMB9 (38287_at) expression fold change upon IL-13 stimulation,"lot 1, Day 3, IMM method",2.3 fold
same,RASGRP1 (33291_at) expression fold change,"lot 1, Day 3, IMM method",2.6 fold
same,RIG-1 (59215_at) expression fold change,"lot 1, Day 3, IMM method",8.7 fold
same,SCYB10 (431_at) expression fold change upon IL-13 stimulation,"lot 1, Day 3, IMM method",3.9 fold
same,SCYB11 (35061_at) expression fold change upon IL-13 stimulation,"lot 1, Day 3, IMM method",7.9 fold
same,"SECTM1 (41045_at) expression, fold change upon IL-13 stimulation","lot 1, Day 3, IMM method",5.2 fold
same,SERPINB4 (1549_s_at) expression fold change,"lot 1, Day 3, IMM method",67.4 fold
same,SERPINB6 (34789_at) expression fold change,"lot 1, Day 3, IMM method",2.6 fold
same,SIAT1 (41352_at) expression fold change upon IL-13 stimulation,"lot 1, Day 3, IMM method",13.1 fold
same,"SLC26A4, pendrin (36376_at) expression fold change","lot 1, Day 3, IMM method",25.6 fold
same,"SSI-1 (41592_at) expression, fold change upon IL-13 stimulation","lot 1, Day 3, IMM method",5.8 fold
same,STAT1 (32860_g_at) expression fold change,"lot 1, Day 3, IMM method",2.4 fold
same,STAT1 (33338_at) expression fold change,"lot 1, Day 3, IMM method",5.7 fold
same,TGFB2 (1262_s_at) expression fold change upon IL-13 stimulation,"lot 1, Day 3, IMM method",2 fold
same,TGM2 (38404_at) expression fold change upon IL-13 stimulation,"lot 1, Day 3, IMM method",5 fold
same,"TSPAN-3 (38612_at) expression, fold change upon IL-13 stimulation","lot 1, Day 3, IMM method",2.5 fold
same,UBE2L6 (40505_at) expression fold change upon IL-13 stimulation,"lot 1, Day 3, IMM method",4.2 fold
same,"UFD1L (811_at) expression, fold change upon IL-13 stimulation","lot 1, Day 3, IMM method",2.3 fold
same,WARS (38121_at) expression fold change upon IL-13 stimulation,"lot 1, Day 3, IMM method",2.9 fold
same,"diubiquitin (39959_at) expression, fold change upon IL-13 stimulation","lot 1, Day 3, IMM method",14.4 fold
same,AA045020 (44676_at) expression change,"lot 1, Day 7, AI",−2.9
same,AA053401 (56234_r_at) expression change,"lot 1, Day 7, AI",−3.5
same,AA059445 46293_at expression change,"lot 1, Day 7, AI",−3.7
same,AA059458 (65626_at) expression change,"lot 1, Day 7, AI",−3.4
same,AA079839 (69289_at) expression change,"lot 1, Day 7, AI",−2.2
same,AA151265 (60939_i_at) expression change,"lot 1, Day 7, AI",−2.6
same,AA151265 (60940_r_at) expression change,"lot 1, Day 7, AI",−5.9
same,AA160156 (47578_at) expression change,"lot 1, Day 7, AI",−4.2
same,AA203423 (65699_at) expression change,"lot 1, Day 7, AI",−2.6
same,AA369887 (87539_i_at) expression change,"lot 1, Day 7, AI",−3.6
same,AA398155 (48999_at) expression change,"lot 1, Day 7, AI",−2
same,AA400080 (57282_at) expression change,"lot 1, Day 7, AI",−4.2
same,AA422178 (53747_at) expression change,"lot 1, Day 7, AI",−2.8
same,AA428312 (83988_at) expression change,"lot 1, Day 7, AI",−2
same,AA442232 (59109_at) expression change,"lot 1, Day 7, AI",−2.3
same,AA456099 (59567_at) expression change,"lot 1, Day 7, AI",−2.2
same,AA772055 46104_at expression change,"lot 1, Day 7, AI",−3
same,AA779895 59136_at expression change,"lot 1, Day 7, AI",−2.4
same,ABCC5 1932_at expression change,"lot 1, Day 7, AI",−3.6
same,AF052107 38262_at expression change,"lot 1, Day 7, AI",−4.1
same,AI050855 (64285_at) expression change,"lot 1, Day 7, AI",−3.6
same,AI432375 (49819_at) expression change,"lot 1, Day 7, AI",−4.5
same,AI669212 55436_at expression change,"lot 1, Day 7, AI",−2.5
same,AI740855 (83076_at) expression change,"lot 1, Day 7, AI",−2
same,AI761647 40191_s_at expression change,"lot 1, Day 7, AI",−3
same,AI770116 (70124_at) expression change,"lot 1, Day 7, AI",−2.3
same,AI798733 (64163_at) expression change,"lot 1, Day 7, AI",−3.6
same,AI829641 (84270_at) expression change,"lot 1, Day 7, AI",−3.3
same,AI923984 33546_at expression change,"lot 1, Day 7, AI",−4.6

# From patent publication US20050208496A1, “Methods of testing for bronchial asthma or chronic obstructive pulmonary disease” (Genox Research, Inc., priority 2002, published 2005)
